Experimental findings from patent US9884828B2, “Substituted cinnolines as inhibitors of LRRK2 kinase activity” (Imago Pharmaceuticals, Inc., priority 2011, dated 2018) are described below.

Sequence of recombinant GST-LRRK2 (wild-type) (Q5S007 whole entry): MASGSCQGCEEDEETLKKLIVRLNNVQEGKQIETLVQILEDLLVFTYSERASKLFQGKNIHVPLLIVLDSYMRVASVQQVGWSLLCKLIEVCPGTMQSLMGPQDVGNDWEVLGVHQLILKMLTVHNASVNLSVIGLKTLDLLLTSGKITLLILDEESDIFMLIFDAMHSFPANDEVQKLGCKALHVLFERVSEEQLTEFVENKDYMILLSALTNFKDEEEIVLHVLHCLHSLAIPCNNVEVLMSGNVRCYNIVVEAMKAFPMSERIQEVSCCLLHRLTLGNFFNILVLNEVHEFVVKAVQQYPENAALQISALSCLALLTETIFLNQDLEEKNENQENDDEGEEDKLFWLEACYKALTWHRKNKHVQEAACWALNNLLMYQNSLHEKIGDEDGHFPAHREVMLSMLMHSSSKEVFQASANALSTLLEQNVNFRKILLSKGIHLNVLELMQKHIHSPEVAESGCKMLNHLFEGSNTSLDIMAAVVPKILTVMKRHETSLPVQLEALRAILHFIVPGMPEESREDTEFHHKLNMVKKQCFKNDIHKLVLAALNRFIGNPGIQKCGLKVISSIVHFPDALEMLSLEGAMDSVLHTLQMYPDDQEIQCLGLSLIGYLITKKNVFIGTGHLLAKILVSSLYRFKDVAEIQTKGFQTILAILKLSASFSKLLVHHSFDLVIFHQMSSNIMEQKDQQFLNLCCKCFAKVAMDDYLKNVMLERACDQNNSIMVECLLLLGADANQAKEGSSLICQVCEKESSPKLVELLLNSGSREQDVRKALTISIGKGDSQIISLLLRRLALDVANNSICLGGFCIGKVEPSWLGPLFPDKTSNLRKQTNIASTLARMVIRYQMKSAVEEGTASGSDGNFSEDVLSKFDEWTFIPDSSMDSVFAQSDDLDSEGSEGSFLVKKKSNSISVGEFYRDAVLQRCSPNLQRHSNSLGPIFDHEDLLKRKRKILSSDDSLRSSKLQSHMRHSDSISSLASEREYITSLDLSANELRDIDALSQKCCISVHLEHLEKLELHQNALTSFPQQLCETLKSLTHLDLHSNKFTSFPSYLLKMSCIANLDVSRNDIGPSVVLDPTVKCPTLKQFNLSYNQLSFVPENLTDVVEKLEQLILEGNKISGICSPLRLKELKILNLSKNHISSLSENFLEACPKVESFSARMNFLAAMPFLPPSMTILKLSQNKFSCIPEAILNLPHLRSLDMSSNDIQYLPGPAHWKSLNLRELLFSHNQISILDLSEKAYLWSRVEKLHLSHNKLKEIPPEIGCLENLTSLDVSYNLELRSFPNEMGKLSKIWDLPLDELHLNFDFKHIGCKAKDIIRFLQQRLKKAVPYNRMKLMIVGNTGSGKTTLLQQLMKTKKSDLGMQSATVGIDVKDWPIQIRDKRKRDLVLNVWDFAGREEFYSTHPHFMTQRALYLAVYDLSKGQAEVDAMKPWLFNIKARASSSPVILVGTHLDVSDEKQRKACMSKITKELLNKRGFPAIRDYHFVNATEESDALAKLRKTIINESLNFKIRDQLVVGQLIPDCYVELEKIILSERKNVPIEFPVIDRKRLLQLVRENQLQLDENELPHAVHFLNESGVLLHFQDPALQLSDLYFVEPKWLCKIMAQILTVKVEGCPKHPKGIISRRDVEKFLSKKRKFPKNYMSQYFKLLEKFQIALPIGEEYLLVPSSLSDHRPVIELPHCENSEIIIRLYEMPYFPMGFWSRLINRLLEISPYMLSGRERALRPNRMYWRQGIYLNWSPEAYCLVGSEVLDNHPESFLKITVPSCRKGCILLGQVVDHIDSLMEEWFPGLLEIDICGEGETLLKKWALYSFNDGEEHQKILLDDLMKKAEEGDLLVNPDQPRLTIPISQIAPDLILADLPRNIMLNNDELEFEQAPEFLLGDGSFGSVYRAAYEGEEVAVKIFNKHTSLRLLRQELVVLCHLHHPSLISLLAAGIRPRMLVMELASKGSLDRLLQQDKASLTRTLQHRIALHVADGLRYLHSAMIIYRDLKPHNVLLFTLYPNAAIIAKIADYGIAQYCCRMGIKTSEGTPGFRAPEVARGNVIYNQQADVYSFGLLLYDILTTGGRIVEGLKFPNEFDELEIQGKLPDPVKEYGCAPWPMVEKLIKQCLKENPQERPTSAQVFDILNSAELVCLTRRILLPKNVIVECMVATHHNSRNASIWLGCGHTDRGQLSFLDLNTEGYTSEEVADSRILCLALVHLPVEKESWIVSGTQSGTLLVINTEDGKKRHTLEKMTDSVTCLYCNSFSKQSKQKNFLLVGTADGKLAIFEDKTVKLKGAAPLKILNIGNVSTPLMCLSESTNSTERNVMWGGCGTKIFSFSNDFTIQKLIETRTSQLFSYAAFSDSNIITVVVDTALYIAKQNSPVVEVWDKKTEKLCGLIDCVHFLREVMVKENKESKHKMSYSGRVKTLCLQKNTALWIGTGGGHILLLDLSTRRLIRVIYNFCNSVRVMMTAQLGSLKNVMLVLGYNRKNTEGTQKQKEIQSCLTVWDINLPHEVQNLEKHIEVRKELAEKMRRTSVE

One assay has as its target recombinant GST-LRRK2 (wild-type) (Homo sapiens (Human), UniProt Q5S007). In words: LRRK2 TR-FRET peptide assay (in vitro kinase activity), wild-type. Format: biochemical.
Conditions: not given
The procedure: Compounds as described herein (compounds of Formula I, e.g., compounds of the above Examples) are tested for their in vitro kinase activities using various LRRK2 (including LRRK2 G2019S mutant) assays. […] Serially diluted compounds (1% DMSO as co-solvent) were pre-incubated with recombinant GST-LRRK2 (wild-type, or G2019S mutant, Invitrogen) for 15 minutes at room temperature in 384-well Corning black plates. […] The inhibition of each well was calculated using the control and background readings for that plate. IC50 values were determined from dose-response curves using eight concentrations from the serial dilution of the test compounds.
A general note: In TR-FRET formats the signal depends on donor and acceptor labels being close together.
As a reminder, the IC50 is the concentration that inhibits the measured activity by half. `CC(C)Nc1c(C(N)=O)nnc2cc(N3CCN(C)CC3)ccc12` [Compound 4-188, 4-(isopropylamino)-7-(4-methylpiperazin-1-yl)cinnoline-3-carboxamide]: the IC50 came out at 53 nM.

Staying with this assay, now noted: 100 μM ATP, 100 nM biotin-LRRKtide substrate, 10 nM kinase, 60 minutes at room temperature.
Turning to `CS(=O)(=O)c1ccc(-c2ccc3c(N)c(C(N)=O)nnc3c2)cc1` [Compound 1-5, 4-amino-7-(4-(methylsulfonyl)phenyl)cinnoline-3-carboxamide], the IC50 was 140 nM.

For `CC(C)Nc1c(C(N)=O)nnc2cc(-n3cccn3)ccc12` [Compound 4-80, 4-(isopropylamino)-7-(1H-pyrazol-1-yl)cinnoline-3-carboxamide], the IC50 was found to be 31 nM.

Turning to `CC(C)Nc1c(C(N)=O)nnc2cc(-c3ccc(N4CCOCC4)cc3)ccc12` [Compound 2-49, 4-(isopropylamino)-7-(4-morpholinophenyl)cinnoline-3-carboxamide], the IC50 amounted to 9 nM.

As for `COc1ccc(C(=O)N(C)C)cc1-c1ccc2c(N[C@H](C)C3CC3)c(C(N)=O)nnc2c1` [Compound 2-107, (R)-4-(1-cyclopropylethylamino)-7-(5-(dimethylcarbamoyl)-2-methoxyphenyl)cinnoline-3-carboxamide], the IC50 turned out to be 48 nM.

For `C[C@@H](Nc1c(C(N)=O)nnc2cc(-c3ccc(N4CCOCC4=O)cc3)ccc12)C1CC1` [Compound 2-116, (R)-4-(1-cyclopropylethylamino)-7-(4-(3-oxomorpholino)phenyl)cinnoline-3-carboxamide], the IC50 turned out to be 10 nM.

On to `CC(C)Nc1c(C(N)=O)nnc2ccc(-c3cncs3)cc12` [Compound 2-131, 4-(isopropylamino)-6-(thiazol-5-yl)cinnoline-3-carboxamide], for which the IC50 was found to be 110 nM.

For the compound `COc1ncccc1Nc1ccc2c(NC(C)C)c(C(N)=O)nnc2c1` [Compound 4-190, 4-(isopropylamino)-7-(2-methoxypyridin-3-ylamino)cinnoline-3-carboxamide], the IC50 is 31 nM.

With `CC(C)Nc1c(C(N)=O)nnc2ccc(-c3ccc(S(C)(=O)=O)cc3)cc12` [Compound 2-125, 4-(isopropylamino)-6-(4-(methylsulfonyl)phenyl)cinnoline-3-carboxamide], the IC50 is 2900 nM.

As to `COc1cccc(Nc2ccc3c(NC(C)C)c(C(N)=O)nnc3c2)c1` [Compound 4-192, 4-(isopropylamino)-7-(3-methoxyphenylamino)cinnoline-3-carboxamide], the IC50 stood at 240 nM.

Regarding `CC(C)Nc1c(-c2cccnc2)nnc2cc(-c3ccc(S(C)(=O)=O)cc3)ccc12` [Compound 3-72, N-isopropyl-7-(4-(methylsulfonyl)phenyl)-3-(pyridin-3-yl)cinnolin-4-amine], the IC50 came to 13000 nM.

With `COc1cc(C(=O)N(C)C)ccc1-c1ccc2c(N[C@H](C)C3CC3)c(C(N)=O)nnc2c1` [Compound 2-118, (R)-4-(1-cyclopropylethylamino)-7-(4-(dimethylcarbamoyl)-2-methoxyphenyl)cinnoline-3-carboxamide], the IC50 turned out to be 10 nM.

On to `CC(C)Nc1c(-c2ncco2)nnc2cc(-c3ccc(S(C)(=O)=O)cc3)ccc12` [Compound 3-71, N-isopropyl-7-(4-(methylsulfonyl)phenyl)-3-(oxazol-2-yl)cinnolin-4-amine], for which the IC50 was greater than 100000 nM.

For `CS(=O)(=O)c1ccc(-c2ccc3c(NC45CC6CC(CC(C6)C4)C5)c(C(N)=O)nnc3c2)cc1` [Compound 2-88, 4-(1-adamantylamino)-7-(4-(methylsulfonyl)phenyl)cinnoline-3-carboxamide], the IC50 stood at 420 nM.

On to `COc1cc(Br)ccc1-c1ccc(OC)c(-c2ccc3c(N[C@H](C)C4CC4)c(C(N)=O)nnc3c2)c1` [Compound 2-203, (R)-7-(4′-bromo-2′,4-dimethoxybiphenyl-3-yl)-4-(1-cyclopropylethylamino)cinnoline-3-carboxamide], for which the IC50 stood at 8700 nM.

For the compound `C[C@@H](Nc1c(C(N)=O)nnc2cc(-c3cccc4c3CC(=O)N4)ccc12)C1CC1` [Compound 2-119, (R)-4-(1-cyclopropylethylamino)-7-(2-oxoindolin-4-yl)cinnoline-3-carboxamide], the IC50 worked out at 18 nM.

Turning to `CC(C)Nc1c(C#N)nnc2cc(-c3ccc(S(C)(=O)=O)cc3)ccc12` [Compound 2-18, 4-(isopropylamino)-7-(4-(methylsulfonyl)phenyl)cinnoline-3-carbonitrile], the IC50 amounted to 620 nM.

`C[C@@H](Nc1c(C(N)=O)nnc2cc(-c3cccc4c3NC(=O)C4)ccc12)C1CC1` [Compound 2-121, (R)-4-(1-cyclopropylethylamino)-7-(2-oxoindolin-7-yl)cinnoline-3-carboxamide]: the IC50 was found to be 2 nM.

Take `CC(C)Nc1c(-c2ncc[nH]2)nnc2cc(-c3ccc(S(C)(=O)=O)cc3)ccc12` [Compound 13-233, 3-(1H-imidazol-2-yl)-N-isopropyl-7-(4-(methylsulfonyl)phenyl)cinnolin-4-amine]: the IC50 stood at 51 nM.

`C[C@@H](Nc1c(C(N)=O)nnc2cc(-c3cccc(C(=O)N(C)C)c3)ccc12)C1CC1` [Compound 2-102, (R)-4-(1-cyclopropylethylamino)-7-(3-(dimethylcarbamoyl)phenyl)cinnoline-3-carboxamide]: the IC50 is less than 6 nM.

In the case of `CNC(=O)c1nnc2cc(-c3ccc(S(C)(=O)=O)cc3)ccc2c1NC` [Compound 12-229, N-methyl-4-(methylamino)-7-(4-(methylsulfonyl)phenyl)cinnoline-3-carboxamide], the IC50 was greater than 1000 nM.

With `C=C(C)c1ccc2c(NC(C)C)c(C(N)=O)nnc2c1` [Compound 2-99, 4-(isopropylamino)-7-(prop-1-en-2-yl)cinnoline-3-carboxamide], the IC50 was determined as 76 nM.

With `C[C@@H](Nc1c(C#N)nnc2cc(-c3ccc(S(C)(=O)=O)cc3)ccc12)C1CC1` [Compound 2-42, (R)-4-(1-cyclopropylethylamino)-7-(4-(methylsulfonyl)phenyl)cinnoline-3-carbonitrile], the IC50 turned out to be 560 nM.

As to `CC(C)Nc1c(C(N)=O)nnc2ccc(-c3ccccc3)cc12` [Compound 2-124, 4-(isopropylamino)-6-phenylcinnoline-3-carboxamide], the IC50 was 630 nM.

For `CS(=O)(=O)c1ccc(-c2ccc3c(NC4CCC4)c(C(N)=O)nnc3c2)cc1` [Compound 2-19, 4-(cyclobutylamino)-7-(4-(methylsulfonyl)phenyl)cinnoline-3-carboxamide], the IC50 was 10 nM.

As for `CC(C)Nc1c(-c2nc[nH]n2)nnc2cc(-c3ccc(S(C)(=O)=O)cc3)ccc12` [Compound 8-200, N-Isopropyl-7-(4-(methylsulfonyl)phenyl)-3-(1H-1,2,4-triazol-3-yl)cinnolin-4-amine], the IC50 stood at 420 nM.

For `COc1cccc(-c2ccc3c(NC(C)C)c(C(N)=O)nnc3c2)c1` [Compound 2-97, 4-(isopropylamino)-7-(3-methoxyphenyl)cinnoline-3-carboxamide], the IC50 turned out to be 46 nM.

In the case of `CC(C)Nc1c(C(N)=O)nnc2cc(-c3cscn3)ccc12` [Compound 5-55, 4-(isopropylamino)-7-(thiazol-4-yl)cinnoline-3-carboxamide], the IC50 came to 13 nM.

For `COc1cc(N2CCOCC2=O)ccc1-c1ccc(OC)c(-c2ccc3c(N[C@H](C)C4CC4)c(C(N)=O)nnc3c2)c1` [Compound 9-210, (R)-4-(1-cyclopropylethylamino)-7-(2′,4-dimethoxy-4′-(3-oxomorpholino)biphenyl-3-yl)cinnoline-3-carboxamide], the IC50 was found to be 490 nM.

As for `CS(=O)(=O)c1ccc(-c2ccc3c(NCC4CCOCC4)c(C(N)=O)nnc3c2)cc1` [Compound 2-89, 7-(4-(methylsulfonyl)phenyl)-4-((tetrahydro-2H-pyran-4-yl)methylamino)cinnoline-3-carboxamide], the IC50 stood at 110 nM.

Regarding `C[C@@H](Nc1c(C(N)=O)nnc2cc(-c3ccccc3Cl)ccc12)C1CC1` [Compound 2-117, (R)-7-(2-chlorophenyl)-4-(1-cyclopropylethylamino)cinnoline-3-carboxamide], the IC50 was determined as 460 nM.

With `CS(=O)(=O)c1ccc(-c2ccc3c(NC4CCOCC4)c(C(N)=O)nnc3c2)cc1` [Compound 2-25, 7-(4-(methylsulfonyl)phenyl)-4-(tetrahydro-2H-pyran-4-ylamino)cinnoline-3-carboxamide], the concentration for half-maximal inhibition (IC50) came out at 23 nM.

Take `C=C(C)c1ccc2c(N[C@H](C)C3CC3)c(C(=O)NC)nnc2c1` [Compound 14-235, (R)-4-(1-cyclopropylethylamino)-N-methyl-7-(prop-1-en-2-yl)cinnoline-3-carboxamide]: the IC50 came to 1600 nM.

Turning to `COc1ccccc1Nc1ccc2c(NC(C)C)c(C(N)=O)nnc2c1` [Compound 4-189, 4-(isopropylamino)-7-(2-methoxyphenylamino)cinnoline-3-carboxamide], the IC50 worked out at 68 nM.

On to `COc1ccccc1-c1ccc2c(NC(C)C)c(C(N)=O)nnc2c1` [Compound 2-96, 4-(isopropylamino)-7-(2-methoxyphenyl)cinnoline-3-carboxamide], for which the IC50 was determined as 350 nM.

Turning to `CC(C)(C)c1ccc2nnc(C(N)=O)c(N)c2c1` [Compound 1-186, 4-amino-6-tert-butylcinnoline-3-carboxamide], the IC50 turned out to be 4000 nM.

With `CN1CCC(Nc2c(C(N)=O)nnc3cc(-c4ccc(S(C)(=O)=O)cc4)ccc23)CC1` [Compound 2-21, 4-(1-methylpiperidin-4-ylamino)-7-(4-(methylsulfonyl)phenyl)cinnoline-3-carboxamide], the IC50 amounted to 180 nM.

In the case of `CC(C)Nc1c(I)nnc2cc(-c3ccc(S(C)(=O)=O)cc3)ccc12` [Compound 3-68, 3-iodo-N-isopropyl-7-(4-(methylsulfonyl)phenyl)cinnolin-4-amine], the IC50 came out at 950 nM.
